pIC50: −log10 of the molar value.

This test deals with human αvβ3 receptor (Homo sapiens, UniProt P05106+P06756). As to the kind of experiment: Bond displacement Vitronectin/Vitronectin Receptor (αvβ3), binding competition test Vn/VR. The note with it: human vitronectin coated plates, 3 hours at ambient temperature. As for the experimental part:
1—Study by the Products of the Invention of the Bond Displacement: Vitronectin/Vitronectin Receptor (αvβ3) 96-well MaxiSorp plates are coated overnight at 4° C., with 100 μl of human Vitronectin (cf Yatohgo et al. Cell., Structure and fraction 13: 281-292 (1988)) at 2 μg/ml, (Dilution in coating buffer).
The next day, the wells are emptied and the ligands (Vitronectin) are then fixed (see fixation buffer) for 1 hour at ambient temperature under gentle agitation.
The wells are washed six times (see washing buffer), then the following are added per well and in this order:
40 μl of incubation buffer, 10 μl of the dilution of the product to be tested, (the products are diluted in a 50/50 mixture of DMSO—H2O) 50 μl of human αvβ3 receptor (cf Pytela et al. Methods Enzymol (1987)144:475) (dilution in incubation buffer, adapted according to the batch of receptor and according to the ligand).
The ligand, the human αvβ3 receptor and the products to be studied are incubated for 3 hours at ambient temperature under gentle agitation.
The wells are again washed six times, then incubated for 2 hours at ambient temperature under gentle agitation, in the presence of 100 μl of 4B12-HRP antibody, anti-receptor coupled to a peroxidase (the 4B12-HRP antibody is diluted in incubation buffer. The dilution is adapted according to the batch of receptor).
The wells are then washed six times before measurement of ligand-receptor bond is carried out using a peroxidase developer kit (TMB Microwell Peroxidase Substrate System Kirkegaard: Ref. cat. 50-76-00).
This kit contains a flask A of substrate (3,3′,5,5′-tetramethylbenzidine at 0.4 g/l) and a flask B (H2O2 at 0.02% in Citrate/Citric acid buffer). Extemporaneously, one volume of A is mixture with one volume of B, then the reaction mixture is distributed at the rate of 100 μl/well. The enzymatic reaction develops in 12′ for Vitronectin/αvβ3, then its development is stopped by the addition of 100 μl of 1M phosphoric acid.
The optical density is measured at 450 nm. […]
coating buffer: 0.05 M Carbonate, NaOH pH 9.6 fixation buffer: PBS containing 0.5% of BSA (pH 7.4) washing buffer: PBS containing 0.05% of Tween 20 (pH 7.4)
Expression of the results:
The following curve is plotted: the percentage of bond of human vitronectin as a function of the logarithm of the concentration of each product tested.
For each product the IC50 is determined according to the following formula:
BO=Maximum bond in the absence of any product Bmin=Minimum bond in the presence of the highest concentration of product.
By pIC50 is commonly meant the IC50 on a negative log10 scale, so that one unit is a factor of ten. Read a low pIC50 as a high IC50. Turning to `COc1c(C(=O)NCC(NC(=O)OCc2ccccc2)C(=O)O)cc2c(c1OC)C1=C(CCC1)C(=NNC1=NCCN1)CC2` (racemic) [EX. 1, 3-[[[4-[(4,5-dihydro-1H-imidazol-2-yl)hydrazono]-9,10-dimethoxy-1,2,3,4,5,6-hexahydro-8-benz[e]azulenyl]-carbonyl]amino]—N-[(phenylmethoxy)carbonyl]-DL-alanine], the pIC50 is 7.80.
With `COc1c(C(=O)NCC(NC(=O)OCc2ccccc2)C(=O)O)cc2c(c1OC)C1=C(CCC1)C(=NNC1=NCCCN1)CC2` (racemic) [EX. 2, 3-[[[9,10-dimethoxy-1,2,3,4,5,6-hexahydro-4-[(1,4,5,6-tetrahydropyrimidin-2-yl)]-hydrazono]-8-benz[e]azulenyl]carbonyl]amino]-N-[(phenylmethoxy)carbonyl]-DL-alanine], the negative-log IC50 (pIC50) is 7.72.
Molecule `O=C(O)CC(NC(=O)c1ccc2c(c1)CCC(=NNC1=NCCN1)C1=C2CCC1)c1cccnc1` (stereo not drawn) [EX. 3, beta-[[[4-[(4,5-dihydro-1H-imidazol-2-yl) hydrazono]-1,2,3,4,5,6-hexahydro-8-benz[e]azulenyl]-carbonyl]-amino]-3-pyridine-3-yl-propanoic acid] had a negative-log IC50 (pIC50) of 7.00.
The result for `O=C(O)CC(NC(=O)c1ccc2c(c1)CCC(=NNC1=NCCN1)C1=C2CCC1)c1ccc2c(c1)OCO2` (stereo not shown) [EX. 4] reads 7.21.

For the origin of these results see patent US6339082B1, “Tricyclic compounds, preparation method and said method intermediates, application as medicines and pharmaceutical compositions containing same” (Aventis Pharma S.A., priority 1997, dated 2002).
